From ChEMBL document CHEMBL5154689, “Discovery of novel β-carboline derivatives as selective AChE inhibitors with GSK-3β inhibitory property for the treatment of Alzheimer's disease” (Eur J Med Chem, 2022) come the findings set out here.

In data set [1] the target is Cholinesterase (Equus caballus) (UniProt P81908). The experiment in a line: Inhibition of equine serum BChE at 50 uM using butyrylthiocholine iodide as substrate preincubated with enzyme for 20 mins followed by substrate addition and measured after 20 mins by Ellman's method. Type of data set: cell-free. The conditions noted are these: time 40.0 min. (Ellman's reagent forms a yellow product with free thiols.)

Data set [2] can be described thus: Selectivity index, ratio of IC50 for equine serum BChE to IC50 for electric eel AChE.
In the next data set the target is Acetylcholinesterase (Electrophorus electricus, UniProt O42275). Nature of the data set: Inhibition of electric eel AChE using acetylthiocholine iodide as substrate preincubated with enzyme for 20 mins followed by substrate addition and measured after 20 mins by Ellman's method.
The next data set has as its target Cholinesterase (Equus caballus, UniProt P81908). Nature of the data set: Inhibition of equine serum BChE using butyrylthiocholine iodide as substrate preincubated with enzyme for 20 mins followed by substrate addition and measured after 20 mins by Ellman's method. The class given is cell-free.
In data set [3] the target is T1, Glycogen synthase kinase-3 beta (Homo sapiens, UniProt P49841). The experiment in a line: Inhibition of GSK3-beta (unknown origin) at 10 uM incubated for 60 mins by ATP-Glo luminescent assay.
Target sequence in this assay (P49841 whole entry, looked up): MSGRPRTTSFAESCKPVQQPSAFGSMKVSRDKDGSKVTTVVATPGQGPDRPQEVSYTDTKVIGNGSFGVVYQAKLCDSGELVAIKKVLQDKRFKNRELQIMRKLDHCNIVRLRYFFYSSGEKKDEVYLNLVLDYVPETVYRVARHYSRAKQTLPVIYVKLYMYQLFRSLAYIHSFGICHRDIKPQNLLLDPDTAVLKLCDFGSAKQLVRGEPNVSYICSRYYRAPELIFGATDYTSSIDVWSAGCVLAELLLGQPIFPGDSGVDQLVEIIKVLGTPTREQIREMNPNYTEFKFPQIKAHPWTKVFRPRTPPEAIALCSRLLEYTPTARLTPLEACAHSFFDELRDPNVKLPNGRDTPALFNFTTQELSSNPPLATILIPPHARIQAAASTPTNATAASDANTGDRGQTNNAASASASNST
The subject of another data set is L02. Nature of the data set: Cytotoxicity against human HL7702 cells assessed as reduction in cell viability at 10 uM incubated for 48 hrs by MTT assay. The class given is toxicity, cell-based. The conditions noted are these: l02, 48 h. On the technique in general: Formazan colour is commonly taken as a measure of viable cells.
The subject of a further data set is SH-SY5Y. Nature of the data set: Cytotoxicity against human SH-SY5Y cells assessed as reduction in cell viability at 10 uM incubated for 48 hrs by MTT assay. The class given is toxicity, cell-based.
In data set [4] the target is T1, Glycogen synthase kinase-3 beta. Nature of the data set: Inhibition of GSK3-beta (unknown origin) incubated for 60 mins by ATP-Glo luminescent assay.
Target sequence in this assay (P49841 whole entry): as the sequence (P49841 whole entry, looked up) above

Chain of Acetylcholinesterase (O42275 whole entry): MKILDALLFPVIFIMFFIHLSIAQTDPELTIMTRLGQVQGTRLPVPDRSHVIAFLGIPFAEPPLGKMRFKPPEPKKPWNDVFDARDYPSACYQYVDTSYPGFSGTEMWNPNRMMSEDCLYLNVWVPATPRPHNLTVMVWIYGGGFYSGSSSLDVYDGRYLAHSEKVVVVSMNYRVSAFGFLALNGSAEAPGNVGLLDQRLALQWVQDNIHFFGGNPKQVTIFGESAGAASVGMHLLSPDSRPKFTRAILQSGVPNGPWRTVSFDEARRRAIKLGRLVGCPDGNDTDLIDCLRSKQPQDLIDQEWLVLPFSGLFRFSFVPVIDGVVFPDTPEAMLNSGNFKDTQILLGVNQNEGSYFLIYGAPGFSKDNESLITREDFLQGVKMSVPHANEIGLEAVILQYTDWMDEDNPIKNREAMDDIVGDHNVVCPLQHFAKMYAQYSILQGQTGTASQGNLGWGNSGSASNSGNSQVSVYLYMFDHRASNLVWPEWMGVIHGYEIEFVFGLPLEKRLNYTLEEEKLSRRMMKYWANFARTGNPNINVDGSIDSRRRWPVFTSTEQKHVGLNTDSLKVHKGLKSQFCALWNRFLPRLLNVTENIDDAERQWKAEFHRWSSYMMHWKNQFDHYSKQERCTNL
Chain of Cholinesterase (Equus caballus) (P81908 whole entry): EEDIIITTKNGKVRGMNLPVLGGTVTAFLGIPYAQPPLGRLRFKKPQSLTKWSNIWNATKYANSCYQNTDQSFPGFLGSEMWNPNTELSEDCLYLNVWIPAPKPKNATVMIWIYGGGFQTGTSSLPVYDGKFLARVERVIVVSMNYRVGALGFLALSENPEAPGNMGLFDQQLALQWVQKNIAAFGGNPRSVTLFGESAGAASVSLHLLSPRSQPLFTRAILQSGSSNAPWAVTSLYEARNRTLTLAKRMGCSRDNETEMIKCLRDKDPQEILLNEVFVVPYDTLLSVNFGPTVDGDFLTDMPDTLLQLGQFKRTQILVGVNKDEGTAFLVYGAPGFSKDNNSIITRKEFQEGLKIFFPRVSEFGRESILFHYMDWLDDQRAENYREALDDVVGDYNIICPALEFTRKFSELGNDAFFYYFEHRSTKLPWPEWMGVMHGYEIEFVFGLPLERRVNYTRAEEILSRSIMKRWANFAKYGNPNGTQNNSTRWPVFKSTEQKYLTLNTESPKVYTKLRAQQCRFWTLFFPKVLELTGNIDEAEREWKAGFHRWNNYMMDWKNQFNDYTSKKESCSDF
Chain of Cholinesterase (P81908 whole entry): as above

Regarding `O=C(NCCC1CCN(Cc2cccc(F)c2)CC1)c1ccc2c(c1)[nH]c1c(NC(=O)C3CC3)nccc12`, the inhibition (in general, the relative decrease from the control value, in per cent) in data set [1] was determined as 65.4%; in data set [3] it was 47.8%. For the same compound, the Ratio IC50 in data set [2] is more than 50.1. The IC50 (commonly the point on the concentration scale where inhibition reaches its midpoint) on Acetylcholinesterase came out at 0.96 µM; at Cholinesterase, 19.9 µM.
Regarding `O=C(NCC1CCN(Cc2ccccc2)CC1)c1ccc2c(c1)[nH]c1c(NC(=O)C3CC3)nccc12`, the inhibition was 37.2% in data set [1] and 20.8% in data set [3]. In addition, the Ratio IC50 in data set [2] was found to be 48.1. For the same compound, the figures for the IC50 on Acetylcholinesterase and at Cholinesterase were 1.73 µM and more than 50 µM, respectively.
For `O=C(NCC1CCN(Cc2c(Cl)cccc2Cl)CC1)c1ccc2c(c1)[nH]c1c(NC(=O)C3CC3)nccc12`, the inhibition in data set [1] is less than 10%; in data set [3], 11.3%. Moreover, in data set [2], the Ratio IC50 was more than 147. For the same compound, the IC50 on Acetylcholinesterase is 0.34 µM; against Cholinesterase, more than 50 µM.
On to `Cc1ccc(CN2CCC(NC(=O)c3ccc4c(c3)[nH]c3c(NC(=O)C5CC5)nccc34)CC2)cc1`, for which the inhibition in data set [1] turned out to be 23%; in data set [3], 10.5%. The Ratio IC50 in data set [2] is more than 5.84. For the same compound, the IC50 at Acetylcholinesterase is 8.56 µM; against Cholinesterase, more than 50 µM.
The matching figures for `O=C(NCCC1CCN(Cc2ccc(F)cc2)CC1)c1ccc2c(c1)[nH]c1c(NC(=O)C3CC3)nccc12`: 68.7%, 14.9%, 16.8, 1.21 µM and 20.3 µM.
On the same counts, the results for `O=C(NCC1CCN(Cc2cccc(F)c2)CC1)c1ccc2c(c1)[nH]c1c(NC(=O)C3CC3)nccc12` are 32.6%, 11.1%, more than 22.3, 2.24 µM and more than 50 µM.
As to `O=C(NCC1CCN(Cc2cc(F)cc(F)c2)CC1)c1ccc2c(c1)[nH]c1c(NC(=O)C3CC3)nccc12`, the inhibition in data set [1] was determined as 10.4%. Besides, the Ratio IC50 in data set [2] was more than 9.92. Further, the IC50 at Acetylcholinesterase is 5.04 µM; against Cholinesterase, more than 50 µM.
With `O=C(NC1CCN(Cc2ccc(F)cc2)CC1)c1ccc2c(c1)[nH]c1c(NC(=O)C3CC3)nccc12`, the inhibition in data set [1] stood at 36.9%; in data set [3], 74.6%. The Ratio IC50 in data set [2] was more than 23.4. The IC50 on Acetylcholinesterase was 2.14 µM; against Cholinesterase, more than 50 µM.
On to `COc1ccc2c(c1)[nH]c1c(C)nccc12` [HARMINE], for which, in data set [1], the inhibition was determined as 74.1%. The IC50 stood at 10.1 µM on Acetylcholinesterase and 13.6 µM on Cholinesterase.
For `O=C(NCCC1CCN(Cc2cc(F)cc(F)c2)CC1)c1ccc2c(c1)[nH]c1c(NC(=O)C3CC3)nccc12`, the inhibition in data set [1] was less than 10%; in data set [3] it was 2.71%. Further, the Ratio IC50 in data set [2] is more than 8.62. In addition, the values for the IC50 against Acetylcholinesterase and against Cholinesterase were 5.8 µM and more than 50 µM, respectively.
On the same counts, the results for `O=C(NC1CCN(Cc2c(Cl)cccc2Cl)CC1)c1ccc2c(c1)[nH]c1c(NC(=O)C3CC3)nccc12` are less than 10%, 21.9%, more than 24.9, 2.01 µM and more than 50 µM.
On the same counts, the results for `O=C(NCCC1CCN(Cc2cccc([N+](=O)[O-])c2)CC1)c1ccc2c(c1)[nH]c1c(NC(=O)C3CC3)nccc12` are 21.5%, 66.2%, more than 31.9, 1.57 µM and more than 50 µM.
On the same counts, the results for `O=C(NCC1CCN(Cc2ccc(Cl)cc2)CC1)c1ccc2c(c1)[nH]c1c(NC(=O)C3CC3)nccc12` are less than 10%, 11.7%, more than 2.55, 19.6 µM and more than 50 µM.
For the compound `O=C(NC1CCN(Cc2ccccc2)CC1)c1ccc2c(c1)[nH]c1c(NC(=O)C3CC3)nccc12`, the inhibition stood at 52.6% in data set [1] and 63.3% in data set [3]. Also, the Ratio IC50 in data set [2] came to 16.6. Also, the IC50 worked out at 2.33 µM against Acetylcholinesterase and 38.8 µM against Cholinesterase.
Regarding `Cc1ccc(CN2CCC(CNC(=O)c3ccc4c(c3)[nH]c3c(NC(=O)C5CC5)nccc34)CC2)cc1`, the results for the inhibition in data set [1] and in data set [3] were 15.3% and 46.4%, respectively. Moreover, the Ratio IC50 in data set [2] was more than 16.6. The IC50 on Acetylcholinesterase is 3.02 µM; against Cholinesterase, more than 50 µM.
The matching figures for `O=C(NC1CCN(Cc2ccc(C(F)(F)F)cc2)CC1)c1ccc2c(c1)[nH]c1c(NC(=O)C3CC3)nccc12`: less than 10%, 71.9%, more than 3.6, 13.9 µM and more than 50 µM.
On to `O=C(NC1CCN(Cc2cc(F)cc(F)c2)CC1)c1ccc2c(c1)[nH]c1c(NC(=O)C3CC3)nccc12`, for which the inhibition was less than 10% in data set [1] and 41.9% in data set [3]. Also, the Ratio IC50 in data set [2] is more than 1.49. For the same compound, the IC50 on Acetylcholinesterase is 33.5 µM; against Cholinesterase, more than 50 µM.
The matching figures for `O=C(NCCC1CCN(Cc2ccccc2)CC1)c1ccc2c(c1)[nH]c1c(NC(=O)C3CC3)nccc12`: 68.3%, -2.01%, 30.2, 0.78 µM and 23.6 µM.
The matching figures for `O=C(NC1CCN(Cc2ccccc2F)CC1)c1ccc2c(c1)[nH]c1c(NC(=O)C3CC3)nccc12`: 30.8%, 84.6%, more than 18.9, 2.64 µM and more than 50 µM.
On the same counts, the results for `O=C(NCCC1CCN(Cc2c(Cl)cccc2Cl)CC1)c1ccc2c(c1)[nH]c1c(NC(=O)C3CC3)nccc12` are less than 10%, 52.1%, more than 56.2, 0.89 µM and more than 50 µM.
Consider `O=C(NCC1CCN(Cc2ccc(C(F)(F)F)cc2)CC1)c1ccc2c(c1)[nH]c1c(NC(=O)C3CC3)nccc12`, for which the inhibition was less than 10% in data set [1] and 59.5% in data set [3]. For the same compound, in data set [2], the Ratio IC50 is more than 4.81. The IC50 is 10.4 µM against Acetylcholinesterase and more than 50 µM against Cholinesterase.
Consider `O=C(NC1CCN(Cc2cccc(F)c2)CC1)c1ccc2c(c1)[nH]c1c(NC(=O)C3CC3)nccc12`, for which the inhibition in data set [1] was 30.8%; in data set [3] it was 79.8%. Further, the Ratio IC50 in data set [2] was more than 22.5. The IC50 was 2.22 µM against Acetylcholinesterase and more than 50 µM on Cholinesterase.
The matching figures for `Cc1ccc(CN2CCC(CCNC(=O)c3ccc4c(c3)[nH]c3c(NC(=O)C5CC5)nccc34)CC2)cc1`: 44.3%, 62.7%, more than 18.2, 2.74 µM and more than 50 µM.
The matching figures for `O=C(NCC1CCN(Cc2ccc(F)cc2)CC1)c1ccc2c(c1)[nH]c1c(NC(=O)C3CC3)nccc12`: 39.7%, 40.9%, more than 16.2, 3.08 µM and more than 50 µM.
`O=C(NCCC1CCN(Cc2ccc(Cl)cc2)CC1)c1ccc2c(c1)[nH]c1c(NC(=O)C3CC3)nccc12`: the inhibition in data set [1] is less than 10%; in data set [3], 84.3%. The Ratio IC50 in data set [2] was more than 3.35. Further, the IC50 at Acetylcholinesterase is 14.9 µM; at Cholinesterase, more than 50 µM. Further, the Activity result in the data set on L02 and with SH-SY5Y was “Toxic” each time.
With `COC(=O)c1ccc2c(c1)[nH]c1c(NC(=O)C3CC3)nccc12`, the IC50 is more than 20 µM on Acetylcholinesterase, more than 20 µM on Cholinesterase and 0.07 µM in data set [4].
Regarding `O=C(NC1CCN(Cc2cccc([N+](=O)[O-])c2)CC1)c1ccc2c(c1)[nH]c1c(NC(=O)C3CC3)nccc12`, the inhibition in data set [1] was found to be 20.1%; in data set [3], 78%. The Ratio IC50 in data set [2] is more than 18.1. In addition, the IC50 against Acetylcholinesterase is 2.77 µM; against Cholinesterase it was more than 50 µM.
The matching figures for `O=C(NCC1CCN(Cc2ccccc2F)CC1)c1ccc2c(c1)[nH]c1c(NC(=O)C3CC3)nccc12`: 55.6%, 42.1%, 40.7, 0.84 µM and 34.2 µM.
For the compound `O=C(NCCC1CCN(Cc2ccc(C(F)(F)F)cc2)CC1)c1ccc2c(c1)[nH]c1c(NC(=O)C3CC3)nccc12`, the inhibition in data set [1] was less than 10%; in data set [3] it was 73.8%. Further, the Ratio IC50 in data set [2] was more than 1.6. The IC50 is 31.2 µM against Acetylcholinesterase and more than 50 µM against Cholinesterase. The Activity entry in the data set on L02 and in the data set on SH-SY5Y was “Toxic” each time.
For the compound `O=C(NC1CCN(Cc2ccc(Cl)cc2)CC1)c1ccc2c(c1)[nH]c1c(NC(=O)C3CC3)nccc12`, the inhibition was less than 10% in data set [1] and 57.9% in data set [3]. The Ratio IC50 in data set [2] is more than 2.64. Also, the values for the IC50 at Acetylcholinesterase and against Cholinesterase were 18.9 µM and more than 50 µM, respectively.
Consider `O=C(NCC1CCN(Cc2cccc([N+](=O)[O-])c2)CC1)c1ccc2c(c1)[nH]c1c(NC(=O)C3CC3)nccc12`, for which the values for the inhibition in data set [1] and in data set [3] were less than 10% and 52.1%, respectively. In addition, in data set [2], the Ratio IC50 was more than 24.4. In addition, the IC50 was 2.05 µM against Acetylcholinesterase and more than 50 µM at Cholinesterase.
